Measurements reported in patent US20260007613A1, “LONG-ACTING LOW-TOXICITY NOVEL CATIONIC LIPID COMPOUNDS AND COMPOSITION THEREOF” (BEIJING YOUCAREKECHUANG PHARMACEUTICAL TECHNOLOGY CO., LTD., priority 2023, published 2026).
Values joined by “and” are separate entries in the source; they are usually repeats but may differ in a detail not shown here. Identical values can stand only once.

How the values were obtained:
liver = assay: Distribution of liposomes in mice: protein expression in the liver (live imaging); format: in vivo; details: at 6 h
How it was run: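 Female BALB/C mice (4–6 weeks, 17–19 g) received LNP carrying […] Fluc-mRNA intramuscularly. At 6 h, 24 h, 48 h and 7 d, the luciferase substrate was given intraperitoneally. After 5 min of free movement, average radiance was imaged with IVIS Spectrum.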

293T cells [1] = assay: Cell survival rate determination (CCK-8); format: cell-based; details: difference of survival rates
How it was run: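 Readout was CCK-8 absorbance (450 nm, 1 h) taken after a 24 h exposure of overnight-adhered 293T cells (10,000 per well, 96-well) to Lipofectamine 3000 or to LNPs carrying Fluc-mRNA, lipid molar ratio 49:10:39.5:1.5 cationic/neutral/structured/polymer-conjugated.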

female BALB/C mice = assay: Live imaging in mice: protein expression of Fluc-mRNA delivered by LNP formulations; format: in vivo; details: for average radiation intensity, times that of ALC-0315: comparator ALC-0315; for average radiation intensity, times that of HHMA: comparator HHMA; for average radiation intensity, times that of SM-102: comparator SM-102; for expression of mRNA in mice, times that of YK-302: comparator YK-302; for expression amount, times that of YK-321: comparator YK-321; for average radiation intensity, times that of compound 21: comparator compound 21; for average radiation intensity, times that of compound 23: comparator compound 23
How it was run: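 Female BALB/C mice (4-6 weeks, 17-19 g) received LNP-formulated Fluc-mRNA […] intramuscularly. At 6 h, 24 h, 48 h and 7 d, luciferase substrate given intraperitoneally, and after 5 min average radiance measured by IVIS whole-body imaging.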

293T cells [2] = assay: Fluorescent detection of Fluc-mRNA (cell transfection efficiency of LNP formulations); format: cell-based
How it was run: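 Transfection read-out: IVIS imaging after […], 24 h after adding LNPs (lipid molar ratio 49:10:39.5:1.5 cationic/neutral/structured/polymer-lipid; […] Fluc-mRNA). Adherent 293T cells were seeded overnight at 10,000 per well beforehand.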

[3] = Particle size and polydispersity index (PDI) of lipid nanoparticles by dynamic light scattering; format: physicochemical; details: LNP formulation prepared from the cationic lipid, 25° C.
Protocol: The particle size and polydispersity index (PDI) were determined by dynamic light scattering using Malvern laser particle size analyzer.
10 μL of the liposome solution was weighed, diluted to 1 mL with RNase-free deionized water, and added to the sample pool. Each sample was measured in triplicate. The measurement conditions were: […] scattering angle, and 25° C.

CCCCCCC(CCCCCC)CCOC(=O)CCCCCCN(CCCCCCC(=O)OCCC(CCCCCC)CCCCCC)C[C@H](O)CN(CCO)CCO [YK-319]
expression amount in the liver compared with ALC-0315 and SM-102 (liver): reduced | protein expression in the liver (liver; intramuscular injection): had protein expression in the liver | cell survival rate higher than ALC-0315 (293T cells [1]; comparator ALC-0315): 24.18% | cell survival rate higher than HHMA (293T cells [1]; comparator HHMA): 8.74% | cell survival rate higher than Lipofectamine 3000 (293T cells [1]; comparator Lipofectamine 3000): 50.20% | cell survival rate higher than SM-102 (293T cells [1]; comparator SM-102): 5.76% | cell survival rate higher than YK-301 (293T cells [1]; comparator YK-301): 22.25% | cell survival rate higher than YK-302 (293T cells [1]; comparator YK-302): 58.78% | cell survival rate higher than YK-303 (293T cells [1]; comparator YK-303): 11.89% | cell survival rate higher than YK-304 (293T cells [1]; comparator YK-304): 41.05% | cell survival rate higher than YK-306 (293T cells [1]; comparator YK-306): 33.02% | cell survival rate higher than YK-307 (293T cells [1]; comparator YK-307): 14.07% | cell survival rate higher than YK-308 (293T cells [1]; comparator YK-308): 4.22% | cell survival rate higher than YK-309 (293T cells [1]; comparator YK-309): 43.60% | cell survival rate higher than YK-311 (293T cells [1]; comparator YK-311): 5.15% | cell survival rate higher than YK-313 (293T cells [1]; comparator YK-313): 6.28% | cell survival rate higher than YK-314 (293T cells [1]; comparator YK-314): 7.33% | cell survival rate higher than YK-315 (293T cells [1]; comparator YK-315): 3.93% | cell survival rate higher than YK-316 (293T cells [1]; comparator YK-316): 4.68% | cell survival rate higher than YK-317 (293T cells [1]; comparator YK-317): 16.03% | cell survival rate higher than YK-320 (293T cells [1]; comparator YK-320): 4.14% | cell survival rate higher than YK-321 (293T cells [1]; comparator YK-321): 2.87% | cell survival rate higher than compound 21 (293T cells [1]; comparator compound 21): 5.00% | cell survival rate higher than compound 23 (293T cells [1]; comparator compound 23): 3.71% | average radiation intensity, times that of ALC-0315 (female BALB/C mice; 6 h): 9.53 times | average radiation intensity, times that of HHMA (female BALB/C mice; 6 h): 12.64 times | average radiation intensity, times that of SM-102 (female BALB/C mice; 6 h): 11.74 times | expression of mRNA in mice, times that of YK-302 (female BALB/C mice; 6 h): 564.51 times | expression amount, times that of YK-321 (female BALB/C mice; 6 h): 15.96 times | average radiation intensity, times that of compound 21 (female BALB/C mice; 6 h): 13.49 times | average radiation intensity, times that of compound 23 (female BALB/C mice; 6 h): 13.96 times | average radiation intensity (female BALB/C mice; 6 h after intramuscular injection): 8230500 | average radiation intensity, times that of ALC-0315 (female BALB/C mice; 24 h): 12.78 times | average radiation intensity, times that of HHMA (female BALB/C mice; 24 h): 20.29 times | average radiation intensity, times that of SM-102 (female BALB/C mice; 24 h): 20.20 times | expression of mRNA in mice, times that of YK-302 (female BALB/C mice; 24 h): 615.26 times | expression amount, times that of YK-321 (female BALB/C mice; 24 h): 24.04 times | average radiation intensity, times that of compound 21 (female BALB/C mice; 24 h): 22.16 times | average radiation intensity, times that of compound 23 (female BALB/C mice; 24 h): 23.28 times | average radiation intensity (female BALB/C mice; 24 h after intramuscular injection): 2433960 | average radiation intensity, times that of ALC-0315 (female BALB/C mice; 48 h): 22.30 times | average radiation intensity, times that of HHMA (female BALB/C mice; 48 h): 27.27 times | average radiation intensity, times that of SM-102 (female BALB/C mice; 48 h): 27.27 times | expression of mRNA in mice, times that of YK-302 (female BALB/C mice; 48 h): 866.03 times | expression amount, times that of YK-321 (female BALB/C mice; 48 h): 24.28 times | average radiation intensity, times that of compound 21 (female BALB/C mice; 48 h): 28.65 times | average radiation intensity, times that of compound 23 (female BALB/C mice; 48 h): 26.80 times | average radiation intensity (female BALB/C mice; 48 h after intramuscular injection): 887680 | average radiation intensity, times that of ALC-0315 (female BALB/C mice; 7 d): 14.88 times | average radiation intensity, times that of HHMA (female BALB/C mice; 7 d): 17.86 times | average radiation intensity, times that of SM-102 (female BALB/C mice; 7 d): 15.84 times | expression of mRNA in mice, times that of YK-302 (female BALB/C mice; 7 d): 273.07 times | expression amount, times that of YK-321 (female BALB/C mice; 7 d): 15.92 times | average radiation intensity, times that of compound 21 (female BALB/C mice; 7 d): 16.27 times | average radiation intensity, times that of compound 23 (female BALB/C mice; 7 d): 16.80 times | average radiation intensity (female BALB/C mice; 7 d after intramuscular injection): 104860 | Relative light unit (RLU) (293T cells [2]; LNP formulation of Fluc-mRNA, 96-well plate, 24 hours): 24467760 RLU | Multiples (YK-305) (293T cells [2]; RLU of YK-305 / RLU of the lipid of the line): 1.12 | Multiples (YK-310) (293T cells [2]; RLU of YK-310 / RLU of the lipid of the line): 1.05 | Multiples (YK-312) (293T cells [2]; RLU of YK-312 / RLU of the lipid of the line): 0.82 | Multiples (YK-318) (293T cells [2]; RLU of YK-318 / RLU of the lipid of the line, Tables 5, 7, 11): 0.46 | Multiples (YK-319) (293T cells [2]; RLU of YK-319 / RLU of the lipid of the line, Tables 5, 7, 11): 1.00 | Ratio relative to SM-102 (293T cells [2]; RLU of the lipid / RLU of SM-102, times that of SM-102): 15.25 | cell transfection efficiency, times that of ALC-0315 (293T cells [2]; comparator ALC-0315): 12.03 times | cell transfection efficiency, times that of HHMA (293T cells [2]; comparator HHMA): 12.20 times | cell transfection efficiency, times that of Lipofectamine 3000 (293T cells [2]; comparator Lipofectamine 3000): 20.63 times | cell transfection efficiency, times that of YK-009 (293T cells [2]; comparator YK-009): 4.78 times | cell transfection efficiency, times that of YK-301 (293T cells [2]; comparator YK-301): 29.04 times | cell transfection efficiency, times that of YK-302 (293T cells [2]; comparator YK-302): 880.83 times | cell transfection efficiency, times that of YK-303 (293T cells [2]; comparator YK-303): 39.07 times | cell transfection efficiency, times that of YK-304 (293T cells [2]; comparator YK-304): ~1100 times and 1182.82 times | cell transfection efficiency, times that of YK-306 (293T cells [2]; comparator YK-306): 11.14 times | cell transfection efficiency, times that of YK-307 (293T cells [2]; comparator YK-307): 5.37 times | cell transfection efficiency, times that of YK-308 (293T cells [2]; comparator YK-308): 2.22 times | cell transfection efficiency, times that of YK-309 (293T cells [2]; comparator YK-309): ~190 times and 195.16 times | cell transfection efficiency, times that of YK-311 (293T cells [2]; comparator YK-311): 12.46 times | cell transfection efficiency, times that of YK-313 (293T cells [2]; comparator YK-313): 28.24 times | cell transfection efficiency, times that of YK-314 (293T cells [2]; comparator YK-314): 44.70 times | cell transfection efficiency, times that of YK-315 (293T cells [2]; comparator YK-315): 15.42 times | cell transfection efficiency, times that of YK-316 (293T cells [2]; comparator YK-316): 5.09 times | cell transfection efficiency, times that of YK-317 (293T cells [2]; comparator YK-317): 6.79 times | cell transfection efficiency, times that of YK-320 (293T cells [2]; comparator YK-320): 9.05 times | cell transfection efficiency, times that of YK-321 (293T cells [2]; comparator YK-321): 17.43 times | cell transfection efficiency, times that of compound 21 (293T cells [2]; comparator compound 21): 17.08 times | cell transfection efficiency, times that of compound 23 (293T cells [2]; comparator compound 23): 18.04 times | PDI (%) [3]: 11.7% | Particle size (nm) [3]: 200 nm
